Experimental findings from patent publication US8835458B2 (Hanmi Science Co., Ltd, priority 2010, dated 2014) are described below.

For data set [1], the system named is MDA-MB-231 breast cancer cell lines. Nature of the data set: Evaluation of inhibition on cell growth (MTS). As to conditions: Homo sapiens, MDA-MB-231, 120 hours. The data set is classed as cell-based. The procedure: (§1) MDA-MB-231 breast cancer cell lines (ATCC #HTB-26) and BxPC-3 pancreas cancer cell lines (ATCC #CRL 1687), which have been reported to express XIAP, were obtained from ATCC (American type culture collection; Rockville, Md.). MDA-MB-231 cell lines were incubated in L-15 medium supplemented with 10% FBS and 1% penicillin/streptomycin (Gibco BRL) at a T-75 cm^2 growth flask. In addition, BxPC-3 cell lines were incubated in RPMI medium supplemented with 10% FBS and 1% penicillin/streptomycin. For experiments of toxicity to normal cells, fibroblasts Hs27 (ATCC #CRL 1634) and Balb/c3t3 (ATCC #CCL 163) were used. The various cell lines were transferred into 96-well plates at a density of 3,000˜5,000 cells/100 μL, and cultured for 24 hours under conditions of 37° C., 5% CO2, 95% air, and 100% relative humidity (MDA-MB-231 cells were cultured under atmospheric conditions). The cells were treated with 10 μM˜0.1 nM of test compounds, and MDA-MB-231, BxPC-3, and normal cell lines were cultured for 120, 96, and 72 hours, respectively.
(§2) Cell viabilities of MDA-MB-231 cell lines were measured at an absorbance of 490 nm using CellTiter 96™ AQueous One Solution Cell proliferation Assay (MTS, Promega), and cell viabilities of BxPC-3 and normal cell lines were measured by fixing cells with 10% TCA (trichloroacetic acid), staining with SRB (sulforhodamine B), and measuring at 540 nm. From the values, GI50 values in which test compounds reduce the growth of cancer cells by 50% were calculated. The growth rates of cancer cells were calculated from following Equation 1 or 2. [(Ti−Tz)/(C−Tz)]×100 (for Ti>=Tz) [Equation 1] [(Ti−Tz)/Tz]×100 (for Ti<Tz) [Equation 2] In Equations 1 and 2, Tz refers to a density of untreated cells, which is an absorbance in 0% cell growth groups. C refers to a density of cells cultured by adding only medium, and Ti refers to a density of cells treated with test compounds.
(§3) GI50 value is the concentration of a test compound when the value of Equation 1 is 50, which indicates the concentration of test compound required to inhibit the cancer cells by 50%. On each measurement, test compounds were compared with a control.
(§4) The activity value of each compound (GI50 value) was shown in Table 5, and an IAP antagonist was used as a control.
(§5) In the activity measurement on MDA-MB-231 breast cancer cell lines, the values were represented as “***” for 100 nM or less, “**” for over 100 nM to below 1,000 nM, and “*” for 1,000 nM or more. In the measurement on normal cell lines, Balb/C and Hs27, the values were represented as “+++” for 10,000 nM or more, “++” for over 5,000 nM to below 10,000 nM, and “+” for 5,000 nM or less.

Data set [2] can be described thus: Toxicity to normal cells (SRB). The data set is classed as cell-based, human. As to conditions: human, Hs27 fibroblasts (normal cell line). The procedure:
as §1, §2, §3, §4, §5

Each structure is given as a SMILES string. Where a name gives a salt, the structure may show the parent alone.

For orientation: GI50 means the concentration that inhibits growth by half. A lower GI50 goes with greater sensitivity of the cells. As for `CN[C@@H](C)C(=O)N[C@H](C(=O)N1CCC[C@H]1C(=O)Nc1cc2c(NCC3CCCCC3)ncnc2cc1OC)C(C)(C)C` [Example 77, (S)—N-(4-(cyclohexylmethyl)amino)-7-methoxyquinazolin-6-yl)-1-((S)-3,3-dimethyl-2-((S)-2-(methylamino)propanamido)butanoyl)pyrrolidine-2-carboxamide hydrochloride], the GI50 in data set [1] is at most 0.1 µM. For the same compound, the GI50 at 72 h in data set [2] is above 10 µM.
For `CN[C@@H](C)C(=O)N[C@H](C(=O)N1CCC[C@H]1C(=O)Nc1cc2c(Nc3cccnc3Cl)ncnc2cc1OC)C(C)(C)C` [Example 78, (S)—N-(4-((2-chloropyridin-3-yl)amino)-7-methoxyquinazolin-6-yl)-1-((S)-3,3-dimethyl-2-((S)-2-(methylamino)propanamido)butanoyl)pyrrolidine-2-carboxamide hydrochloride], in that order: at most 0.1 µM and above 10 µM.
For `CN[C@@H](C)C(=O)N[C@H](C(=O)N1CCC[C@H]1C(=O)Nc1cc2c(Nc3ccc(Cl)nc3)ncnc2cc1OC)C(C)(C)C` [Example 79, (S)—N-(4-((6-chloropyridin-3-yl)amino)-7-methoxyquinazolin-6-yl)-1-((S)-3,3-dimethyl-2-((S)-2-(methylamino)propanamido)butanoyl)pyrrolidine-2-carboxamide hydrochloride], in that order: at most 0.1 µM and above 10 µM.
For `CN[C@@H](C)C(=O)N[C@H](C(=O)N1CCC[C@H]1C(=O)Nc1cc2c(Nc3ccc(Br)cc3Cl)ncnc2cc1OC)C(C)(C)C` [Example 80, (S)—N-(4-((4-bromo-2-chlorophenyl)amino)-7-methoxyquinazolin-6-yl)-1-((S)-3,3-dimethyl-2-((S)-2-(methylamino)propanamido)butanoyl)pyrrolidine-2-carboxamide hydrochloride], in that order: at most 0.1 µM and above 10 µM.
In data set [1], `CN[C@@H](C)C(=O)N[C@H](C(=O)N1CCC[C@H]1C(=O)Nc1cc2c(Nc3cccc(Cl)c3Cl)ncnc2cc1OC)C(C)(C)C` [Example 81, (S)—N-(4-((2,3-dichlorophenyl)amino)-7-methoxyquinazolin-6-yl)-1-((S)-3,3-dimethyl-2-((S)-2-(methylamino)propanamido)butanoyl)pyrrolidine-2-carboxamide hydrochloride] showed a GI50 of at most 0.1 µM. This compound came in with a GI50 at 72 h in data set [2] above 10 µM.
For `CN[C@@H](C)C(=O)N[C@H](C(=O)N1CCC[C@H]1C(=O)Nc1cc2c(Nc3ccc(F)cc3Br)ncnc2cc1OC)C(C)(C)C` [Example 82, (S)—N-(4-((2-bromo-4-fluorophenyl)amino)-7-methoxyquinazolin-6-yl)-1-((S)-3,3-dimethyl-2-((S)-2-(methylamino)propanamido)butanoyl)pyrrolidine-2-carboxamide hydrochloride], in that order: at most 0.1 µM and above 10 µM.
For `CN[C@@H](C)C(=O)N[C@H](C(=O)N1CCC[C@H]1C(=O)Nc1cc2c(NCCc3ccccc3)ncnc2cc1OC)C(C)(C)C` [Example 83, hydrochloride], in that order: 0.1 to 1 µM and above 10 µM.
In turn, `C#CCOc1ccc(Nc2ncnc3cc(OC)c(NC(=O)[C@@H]4CCCN4C(=O)[C@@H](NC(=O)[C@H](C)NC)C(C)(C)C)cc23)cn1` [Example 84, (S)-1-((S)-3,3-dimethyl-2-((S)-2-(methylamino)propanamido)butanoyl)-N-(7-methoxy-4-((6-(prop-2-yn-1-yloxy)pyridin-3-yl)amino)quinazolin-6-yl)pyrrolidine-2-carboxamide hydrochloride] came in with a GI50 in data set [1] of 0.1 to 1 µM. In data set [2], this compound had a GI50 at 72 h above 10 µM.
For `CN[C@@H](C)C(=O)N[C@H](C(=O)N1CCC[C@H]1C(=O)Nc1cc2c(Nc3ccc(N4CCCCC4)c(F)c3)ncnc2cc1OC)C(C)(C)C` [Example 85, (S)-1-((S)-3,3-dimethyl-2-((S)-2-(methylamino)propanamido)butanoyl)-N-(4-((3-fluoro-4-(piperidin-1-yl)phenyl)amino)-7-methoxyquinazolin-6-yl)pyrrolidine-2-carboxamide hydrochloride], in that order: at most 0.1 µM and above 10 µM.
For `CN[C@@H](C)C(=O)N[C@H](C(=O)N1CCC[C@H]1C(=O)Nc1cc2c(Nc3ccc(N4CCN(C)CC4)c(Cl)c3)ncnc2cc1OC)C(C)(C)C` [Example 86, (S)—N-(4-((3-chloro-4-(4-methylpiperazin-1-yl)phenyl)amino)-7-methoxyquinazolin-6-yl)-1-((S)-3,3-dimethyl-2-((S)-2-(methylamino)propanamido)butanoyl)pyrrolidine-2-carboxamide hydrochloride], in that order: at most 0.1 µM and above 10 µM.
For the compound `CN[C@@H](C)C(=O)N[C@H](C(=O)N1CCC[C@H]1C(=O)Nc1cc2c(Nc3ccc(Br)c(Cl)c3F)ncnc2cc1OC)C(C)(C)C` [Example 87, (S)—N-(4-((4-bromo-3-chloro-2-fluorophenyl)amino)-7-methoxyquinazolin-6-yl)-1-((S)-3,3-dimethyl-2-((S)-2-(methylamino)propanamido)butanoyl)pyrrolidine-2-carboxamide hydrochloride], the GI50 in data set [1] is at most 0.1 µM. In addition, the 50% growth inhibitory concentration (GI50) at 72 h in data set [2] was above 10 µM.
`CN[C@@H](C)C(=O)N[C@H](C(=O)N1CCC[C@H]1C(=O)Nc1cc2c(Nc3ccc(-n4ccnc4)cc3)ncnc2cc1OC)C(C)(C)C` [Example 88, (S)—N-(4-((4-(1H-imidazol-1-yl)phenyl)amino)-7-methoxyquinazolin-6-yl)-1-((S)-3,3-dimethyl-2-((S)-2-(methylamino)propanamido)butanoyl)pyrrolidine-2-carboxamide hydrochloride] yielded a GI50 in data set [1] of at most 0.1 µM. This compound gave a GI50 at 72 h in data set [2] above 10 µM.
For `CN[C@@H](C)C(=O)N[C@H](C(=O)N1CCC[C@H]1C(=O)Nc1cc2c(NC(=O)Nc3ccccc3F)ncnc2cc1OC)C(C)(C)C` [Example 89, (S)-1-((S)-3,3-dimethyl-2-((S)-2-(methylamino)propanamido)butanoyl)-N-(4-(3-(2-fluorophenyl)ureido)-7-methoxyquinazolin-6-yl)pyrrolidine-2-carboxamide hydrochloride], in that order: at most 0.1 µM and above 10 µM.
In the case of `CN[C@@H](C)C(=O)N[C@H](C(=O)N1CCC[C@H]1C(=O)Nc1cc2c(Nc3ccc(N4CCOCC4)cc3)ncnc2cc1OC)C(C)(C)C` [Example 90, (S)-1-((S)-3,3-dimethyl-((S)-2-(methylamino)propanamido)butanoyl)-N-(7-methoxy-4-((4-morpholinophenyl)amino)quinazolin-6-yl)pyrrolidine-2-carboxamide hydrochloride], the GI50 in data set [1] is at most 0.1 µM. This compound had a GI50 at 72 h in data set [2] above 10 µM.
For `C#CCOc1ccc(Nc2ncnc3cc(OC)c(NC(=O)[C@@H]4CCCN4C(=O)[C@@H](NC(=O)[C@H](C)NC)C(C)(C)C)cc23)cc1` [Example 91, (S)-1-((S)-3,3-dimethyl-2-((S)-2-(methylamino)propanamide)butanoyl)-N-(7-methoxy-4-((4-(2-propyn-1-yloxy)phenyl)amino)quinazolin-6-yl)pyrrolidine-2-carboxamide hydrochloride], in that order: at most 0.1 µM and above 10 µM.
For `CN[C@@H](C)C(=O)N[C@H](C(=O)N1CCC[C@H]1C(=O)Nc1cc2c(Nc3ccc(N4CCN(CC5CC5)CC4)c(Cl)c3)ncnc2cc1OC)C(C)(C)C` [Example 92, (S)—N-(4-((3-chloro-4-(4-(cyclopropylmethyl)piperazin-1-yl)phenyl)amino)-7-methoxyquinazolin-6-yl)-1-((S)-3,3-dimethyl-2-((S)-2-(methylamino)propanamido)butanoyl)pyrrolidine-2-carboxamide], in that order: at most 0.1 µM and above 10 µM.
For `CN[C@@H](C)C(=O)N[C@H](C(=O)N1CCC[C@H]1C(=O)Nc1cc2c(Nc3ccc4c(=O)cc(C)oc4c3)ncnc2cc1OC)C(C)(C)C` [Example 93, (S)-1-((S)-3,3-dimethyl-2-((S)-2-(methylamino)propanamide)butanoyl)-N-(7-methoxy-4-((2-methyl-4-oxo-4H-chromen-7-yl)amino)quinazolin-6-yl)pyrrolidine-2-carboxamide hydrochloride], in that order: at most 0.1 µM and above 10 µM.
